Tests used:
[1] = target: T1, human recombinant adrenergic α1D receptor (Homo sapiens, UniProt P25100); test: Adrenergic alpha1D radioligand binding ([3H]Prozosin); settings: compound at 1 μM; read-out: Adrenergic (1 μM) α1D, percent inhibition of specific binding
T1 construct: expressed in transfected cells; host or cells: HEK-293 cells
T1 sequence (P25100 1-572): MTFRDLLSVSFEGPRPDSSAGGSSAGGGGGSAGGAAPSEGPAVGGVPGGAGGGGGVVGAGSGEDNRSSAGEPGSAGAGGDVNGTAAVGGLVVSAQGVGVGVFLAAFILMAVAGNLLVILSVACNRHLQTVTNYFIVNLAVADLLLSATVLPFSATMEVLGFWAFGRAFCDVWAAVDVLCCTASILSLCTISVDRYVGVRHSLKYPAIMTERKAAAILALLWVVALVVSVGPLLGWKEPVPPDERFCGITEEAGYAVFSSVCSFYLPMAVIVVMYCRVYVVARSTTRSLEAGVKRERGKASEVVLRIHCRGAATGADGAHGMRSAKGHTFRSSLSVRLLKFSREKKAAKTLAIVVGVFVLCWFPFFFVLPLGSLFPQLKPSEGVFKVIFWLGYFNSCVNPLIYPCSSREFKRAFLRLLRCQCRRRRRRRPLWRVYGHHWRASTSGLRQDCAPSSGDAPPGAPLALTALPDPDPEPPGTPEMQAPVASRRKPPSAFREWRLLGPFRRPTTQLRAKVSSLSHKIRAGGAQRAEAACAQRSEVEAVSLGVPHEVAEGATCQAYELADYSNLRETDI
Method in brief: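 Membranes from HEK-293 cells expressing the human receptor in 50 mM Tris-HCl pH 7.4 were incubated 60 min at 25 °C with 0.6 nM [3H]prazosin. Nonspecific binding was defined with 10 μM phentolamine, and bound ligand measured by filtration.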

[2] = target: T2, human recombinant adrenergic α2B receptor (Homo sapiens, UniProt P18089); test: Adrenergic alpha2B radioligand binding ([3H]Rauwolscine); settings: compound at 1 μM; read-out: Adrenergic (1 μM) α2B, percent inhibition of specific binding
T2 construct: expressed in transfected cells; host or cells: CHO-K1 cells
T2 sequence (P18089 1-450): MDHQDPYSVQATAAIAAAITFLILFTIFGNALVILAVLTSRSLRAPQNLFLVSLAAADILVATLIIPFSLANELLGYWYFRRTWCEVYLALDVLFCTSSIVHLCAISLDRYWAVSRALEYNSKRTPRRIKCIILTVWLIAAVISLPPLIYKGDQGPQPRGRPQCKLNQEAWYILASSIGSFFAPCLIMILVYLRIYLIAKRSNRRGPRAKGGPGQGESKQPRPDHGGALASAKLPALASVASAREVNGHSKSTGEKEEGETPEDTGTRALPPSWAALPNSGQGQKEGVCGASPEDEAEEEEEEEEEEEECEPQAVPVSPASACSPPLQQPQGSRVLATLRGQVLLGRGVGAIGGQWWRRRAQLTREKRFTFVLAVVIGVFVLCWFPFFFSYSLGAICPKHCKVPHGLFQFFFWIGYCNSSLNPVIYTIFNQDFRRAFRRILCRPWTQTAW
Method in brief: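 CHO-K1-expressed receptor in Tris-HCl pH 7.4 with MgCl2, EDTA, BSA, incubated 60 min at 25° C with 2.5 nM [3H]Rauwolscine; 10 μM prazosin defines non-specific binding.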

[3] = target: T3, human recombinant dopamine D2L receptor (Homo sapiens, UniProt P14416); test: Dopamine D2L radioligand binding ([3H]Spiperone); settings: compound at 1 μM; read-out: Dopamine (1 μM) D2L, percent inhibition of specific binding
T3 construct: expressed in transfected cells; host or cells: CHO cells
Method in brief: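 Human recombinant D2L receptor from CHO cells, in Tris-HCl buffer pH 7.4 with ascorbic acid, BSA and 150 mM NaCl; compounds at 1 μM or lower (1% DMSO) incubated with 0.16 nM [3H]spiperone, 120 min, 25° C. Nonspecific binding by 10 μM haloperidol; filter counting; % inhibition of specific binding.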

[4] = target: T4, human recombinant serotonin (5-Hydroxytryptamine) 5-HT2A receptor (Homo sapiens, UniProt P28223); test: Serotonin 5-HT2A radioligand binding ([3H]Ketanserin); settings: compound at 1 μM; read-out: Serotonin (1 μM) 5-HT2A, percent inhibition of specific binding
T4 construct: expressed in transfected cells; host or cells: CHO-K1 cells
Method in brief: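 Percent inhibition of specific [3H]ketanserin (0.5 nM) binding, filtration read-out, with compounds at ≤1 μM (1% DMSO vehicle). Receptor source: recombinant human 5-HT2A in CHO-K1 cells, 50 mM Tris-HCl pH 7.4, 60 min, 25 °C; 1 μM mianserin gives nonspecific binding.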

T4 sequence (P28223 whole entry): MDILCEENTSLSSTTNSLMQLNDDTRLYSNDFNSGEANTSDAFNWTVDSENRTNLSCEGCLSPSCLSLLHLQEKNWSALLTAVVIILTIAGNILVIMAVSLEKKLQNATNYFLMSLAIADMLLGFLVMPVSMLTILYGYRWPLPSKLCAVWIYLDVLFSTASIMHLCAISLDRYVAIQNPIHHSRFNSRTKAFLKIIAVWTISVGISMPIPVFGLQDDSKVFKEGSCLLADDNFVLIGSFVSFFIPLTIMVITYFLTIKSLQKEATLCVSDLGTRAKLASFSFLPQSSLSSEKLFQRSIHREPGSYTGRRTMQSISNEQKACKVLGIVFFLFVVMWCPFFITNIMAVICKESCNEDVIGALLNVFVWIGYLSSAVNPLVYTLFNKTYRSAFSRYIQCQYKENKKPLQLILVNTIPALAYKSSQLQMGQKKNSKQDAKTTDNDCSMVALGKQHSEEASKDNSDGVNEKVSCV
T3 sequence (P14416 whole entry): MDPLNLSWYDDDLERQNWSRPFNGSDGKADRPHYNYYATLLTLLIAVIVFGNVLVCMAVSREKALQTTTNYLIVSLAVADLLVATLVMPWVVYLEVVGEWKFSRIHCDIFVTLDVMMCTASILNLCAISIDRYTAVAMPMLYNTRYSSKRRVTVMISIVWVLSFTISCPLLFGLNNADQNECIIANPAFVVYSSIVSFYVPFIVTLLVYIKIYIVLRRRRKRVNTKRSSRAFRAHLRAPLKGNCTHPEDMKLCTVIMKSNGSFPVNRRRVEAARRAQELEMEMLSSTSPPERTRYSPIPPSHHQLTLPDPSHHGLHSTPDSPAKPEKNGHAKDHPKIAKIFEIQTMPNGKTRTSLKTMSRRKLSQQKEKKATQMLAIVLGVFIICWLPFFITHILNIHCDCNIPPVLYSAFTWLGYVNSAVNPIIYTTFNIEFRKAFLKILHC

SMILES | inhibition at 1 µM [1] | inhibition at 1 µM [2] | inhibition at 1 µM [3] | inhibition at 1 µM [4]
CN1CCc2c(n(CCc3ccc(C(F)(F)F)nc3)c3ccc(Cl)cc23)CC1 [Compound No. 1, 9-chloro-6-(2-(6-(trifluoromethyl)pyridin-3-yl)ethyl)-1,2,3,4,5,6-hexahydro-3-methylazepino[4,5-b]indole] | 90% | 107% | 23% | 98%
C/C(=C\n1c2c(c3cc(Cl)ccc31)CCN(C)CC2)c1ccc(F)cc1 [Compound No. 2, 9-chloro-6-((E)-2-(4-fluorophenyl)prop-1-enyl)-1,2,3,4,5,6-hexahydro-3-methylazepino[4,5-b]indole] | 100% | 111% | 97% | 99%
Cc1cncc(CCn2c3c(c4cc(Cl)ccc42)CCN(C)CC3)c1 [Compound No. 3, 9-chloro-3-methyl-6-(2-(5-methylpyridin-3-yl)ethyl)-1,2,3,4,5,6-hexahydroazepino[4,5-b]indole] | 89% | 112% | 27% | 95%
CC1CCN(C(=O)Cn2c3c(c4cc(Cl)ccc42)CCN(C)CC3)CC1 [Compound No. 76, 2-(9-chloro-2,3,4,5-tetrahydro-3-methylazepino[4,5-b]indol-6(1H)-yl)-1-(4-methylpiperidin-1-yl)ethanone] | 37% | 31% | 0% | 52%
COc1ccc(C(O)Cn2c3c(c4cc(Cl)ccc42)CCN(C)CC3)cc1OC (stereo not drawn) [Compound No. 77, 2-(9-chloro-2,3,4,5-tetrahydro-3-methylazepino[4,5-b]indol-6(1H)-yl)-1-(3,4-dimethoxyphenyl)ethanol] | 81% | 113% | 16% | 90%
COc1ccc(/C=C/n2c3c(c4cc(Cl)ccc42)CCN(C)CC3)cc1 [Compound No. 78, 6-(4-methoxystyryl)-9-chloro-1,2,3,4,5,6-hexahydro-3-methylazepino[4,5-b]indole] | 102% | 111% | 58% | 100%
Cc1ccc2c(c1)c1c(n2CC(=O)Nc2ccccc2)CCN(C)CC1 [Compound No. 79, 2-(2,3,4,5-tetrahydro-3,9-dimethylazepino[4,5-b]indol-6(1H)-yl)-N-phenylacetamide] | -6% | 20% | -7% | -8%
C=C(Cn1c2c(c3cc(Cl)ccc31)CCN(C)CC2)c1ccc(F)cc1 [Compound No. 82, 9-chloro-6-(2-(4-fluorophenyl)allyl)-3-methyl-1,2,3,4,5,6-hexahydroazepino[4,5-b]indole] | 96% | 91% | 90% | 98%
CN1CCc2c(n(/C=C/c3ccccc3F)c3ccc(Cl)cc23)CC1 [Compound No. 83, (E)-9-chloro-6-(2-fluorostyryl)-3-methyl-1,2,3,4,5,6-hexahydro azepino[4,5-b]indole] | 93% | 113% | 61% | 99%
C/C(=C/n1c2c(c3cc(Cl)ccc31)CCN(C)CC2)c1ccc(Cl)cc1Cl [Compound No. 152, (Z)-9-chloro-6-(2-(2,4-dichlorophenyl)prop-1-enyl)-1,2,3,4,5,6-hexahydro-3-methylazepino[4,5-b]indole] | 47% | 88% | 3% | 100%
COc1ccc(/C=C/n2c3c(c4cc(Cl)ccc42)CCN(C)CC3)cc1F [Compound No. 158, (E)-6-(3-fluoro-4-methoxystyryl)-9-chloro-1,2,3,4,5,6-hexahydro-3-methylazepino[4,5-b]indole] | 98% | 109% | 65% | 101%
C/C(=C/n1c2c(c3cc(C)ccc31)CCN(C)CC2)c1ccc(Cl)cc1Cl [Compound No. 174, (Z)-6-(2-(2,4-dichlorophenyl)prop-1-enyl)-1,2,3,4,5,6-hexahydro-3,9-dimethylazepino[4,5-b]indole] | 89% | 105% | 34% | 102%
COc1ccc(/C=C/n2c3c(c4cc(C)ccc42)CCN(C)CC3)cc1F [Compound No. 180, (E)-6-(3-fluoro-4-methoxystyryl)-1,2,3,4,5,6-hexahydro-3,9-dimethylazepino[4,5-b]indole] | 98% | 103% | 62% | 101%
Cc1ccc2c(c1)c1c(n2CC(=O)N2CCNCC2)CCN(C)CC1 [Compound No. 224, 2-(3,9-dimethyl-2,3,4,5-tetrahydroazepino[4,5-b]indol-6(1H)-yl)-1-(piperazin-1-yl)ethanone] | 19% | -6% | -2% | -7%
Cc1ccc2c(c1)c1c(n2CC(=O)N2CCC(C)CC2)CCN(C)CC1 [Compound No. 225, 2-(3,9-dimethyl-2,3,4,5-tetrahydroazepino[4,5-b]indol-6(1H)-yl)-1-(4-methylpiperidin-1-yl)ethanone] | 34% | 13% | 3% | 38%
COc1ccc(/C=C/n2c3c(c4cc(Cl)ccc42)CCN(C)CC3)cc1OC [Compound No. 226, (E)-9-chloro-6-(3,4-dimethoxystyryl)-3-methyl-1,2,3,4,5,6-hexahydroazepino[4,5-b]indole] | 83% | 102% | 37% | 92%
COc1ccc(C(O)Cn2c3c(c4cc(C)ccc42)CCN(C)CC3)cc1OC (stereo not drawn) [Compound No. 227, 1-(3,4-dimethoxyphenyl)-2-(3,9-dimethyl-2,3,4,5-tetrahydroazepino[4,5-b]indol-6(1H)-yl)ethanol] | 73% | 98% | 5% | 85%
CN1CCc2c(n(/C=C/c3ccccc3)c3ccc(Cl)cc23)CC1 [Compound No. 228, (E)-9-chloro-3-methyl-6-styryl-1,2,3,4,5,6-hexahydroazepino[4,5-b]indole] | 98% | 110% | 73% | 99%
